Assay results as given in patent publication US20260272871A1, “USE OF RETINOIC ACID RECEPTOR ACTIVATOR AND COMPOSITION THEREOF IN REGENERATION AND REPAIR OF MAMMALS” (INSTITUTE OF ZOOLOGY, CHINESE ACADEMY OF SCIENCES, priority 2022, published 2026).
“Also recorded” adds a separate entry of the source.

Assays:
[1] = tested on: 2 mm diameter mouse ear hole; experiment: 2 mm ear hole trauma mouse model (ear hole closure); format: in vivo, C57BL/6 mice; conditions: for healing of 2 mm ear holes by inhibitors of ferroptosis and autophagy: 10-20 mg/kg, measured 21 days after damage, vs DMSO and CHX, FIG. 3; for ear hole regeneration (healing) on interfering with potential RA targets: 10 or 20 mg/kg per reagent, 21 days after the trauma, FIG. 5B
[2] = tested on: 4 mm diameter mouse ear hole; design: species or system mice; conditions: in vivo
scalded skin of mice = experiment: Scald scar formation in mice; format: in vivo; conditions: after 40 days of administration, after hair shaving, vs Vehicle; FIG. 7
Protocol: Experimental method: 7-week-old mice were used and (1) mice were anesthetized by intraperitoneal injection of 0.5% pentobarbital sodium (100 μl/10 g b.w.); (2) the back was shaved, and the skin was disinfected with 75% alcohol. (3) the mice were scalded with boiling water for 10-15 seconds. The scald area was a circle with a diameter of 1.5 cm. […] (5) wound repair status was detected.

O=C1OC(COc2ccccc2[N+](=O)[O-])CC1Cc1ccccc1 (stereo not shown) [3BDO]
healing of 2 mm ear holes by inhibitors of ferroptosis and autophagy [1]: Neither inhibitors of ferroptosis nor autophagy could promote the healing of the ear hole like CHX

Cc1ccc(C2=CCC(C)(C)c3ccc(C#Cc4ccc(C(=O)O)cc4)cc32)cc1 [AGN193109]
effect of RAR inhibitor on CHX-induced ear hole healing ([1]; CHX 20 mg/kg + AGN 0.75 mg/kg i.p., 21 days after damage, FIG. 4): completely inhibit the healing of the ear holes induced by CHX
effect of RAR inhibitor on the coordinated effect of CHX+RA ([1]; CHX 20 mg/kg + RA 5 mg/kg + AGN 0.75 mg/kg i.p., 21 days after damage, FIG. 4): could still be inhibited

COc1ccc(C[C@H]2NC[C@H](O)[C@H]2OC(C)=O)cc1 [Ani, Anisomycin]
healing of the 2 mm ear hole ([1]; mouse, in vivo): could significantly promote the healing of the ear hole

Cc1cc(Nc2cc(Cl)nc(Oc3ccc([N+](=O)[O-])cc3)n2)n[nH]1 [Autophinib]
healing of 2 mm ear holes by inhibitors of ferroptosis and autophagy [1]: Neither inhibitors of ferroptosis nor autophagy could promote the healing of the ear hole like CHX

C[C@@H]1C[C@@H]([C@H](O)CC2CC(=O)NC(=O)C2)C(=O)[C@@H](C)C1 [CHX, 4-((R)-2-((1S,3S,5S)-3,5-dimethyl-2-oxocyclohexyl)-2-hydroxyethyl)piperidine-2,6-dione]
HE staining of auricle tissue 180 days after ear hole closure ([1]; mouse, in vivo): regeneration of tissues and tissue derivatives such as hair follicles, glands, cartilage, muscles and blood vessels
HE staining of mouse auricle tissue ([1]; mouse, in vivo): the trauma had completely healed
HE staining of mouse auricle tissue, 15th day ([1]; mouse, in vivo): healed the tissue after damage and formed granulation tissue
KI67 immunohistochemical staining of mouse auricle tissue ([1]; mouse, in vivo): expressed a large amount of KI67
concentration (dose) above which the ear hole wound was completely closed ([1]; mouse, in vivo): greater than 8 mg/kg
dose dependence of promotion of 2 mm ear hole healing ([1]; mouse, in vivo): dose-dependent
effect of different administration manners on ear hole healing ([1]; mouse, in vivo): different manners of administration had the effect of promoting regeneration
healing condition of 2 mm ear hole (photograph) ([1]; mouse, in vivo): had completely closed
healing of the 2 mm ear hole ([1]; mouse, in vivo): could significantly promote the healing of the ear hole; also recorded: the healing effect of CHX was better
closure of 2 mm diameter ear holes at different concentrations of CHX ([1]; mouse, in vivo, ip): promoted the closure
closure of 4 mm diameter ear holes [2]: promoted the shrinkage of ear hole wounds, but could not completely close them; also recorded: complete closure of the ear holes could be achieved
wound area of the 4 mm mouse ear hole [2]: significantly reduced

CC1=C(/C=C/C(C)=C/C=C/C(C)=C/C(=O)O)C(C)(C)CCC1 [RA, all-trans retinoic acid]
scar area after scald (scalded skin of mice): significantly reduce the scar area
closure of the ear hole with RA alone ([1]; RA 5 mg/kg, 20 mg/kg vs DMSO, 21 days after ear hole damage, FIG. 5A): promote the closure of the ear hole in a dose-dependent manner

CCC(CC)C(c1ccc(Nc2nc3ccccc3s2)cc1)n1cncn1 (stereo not shown) [Talarozole]
ear hole regeneration (healing) on interfering with potential RA targets [1]: could also promote ear hole regeneration

O=S(=O)(NCCN1CCNCC1)c1ccc(NC2CCCCC2)c(NCc2ccccc2)c1 [UAMC-3203]
healing of 2 mm ear holes by inhibitors of ferroptosis and autophagy [1]: Neither inhibitors of ferroptosis nor autophagy could promote the healing of the ear hole like CHX

CC1=C(/C=C/C(C)=C/C=C/C(C)=C/CO)C(C)(C)CCC1 [vitamin A]
ear hole regeneration (healing) on interfering with potential RA targets [1]: could also promote ear hole regeneration
